Measured values taken from PubChem BioAssay (NCI).
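Step 1: Grow cells in 96-well plates. Step 2: Expose to compound for 48 hours at 5 concentrations. Step 3: Interpolate endpoints linearly; if unreached, use highest concentration. TGI denotes the concentration required for complete inhibition of growth.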

What was measured:
Assay in all cases: DTP human tumour cell line panel, 48 h
PC-3 prostate = system: PC-3 prostate
NCI-H23 lung = system: NCI-H23 lung
OVCAR-3 ovarian = system: OVCAR-3 ovarian
IGROV1 ovarian = system: IGROV1 ovarian
HCC-2998 colon = system: HCC-2998 colon
SK-MEL-2 melanoma = system: SK-MEL-2 melanoma
SNB-19 CNS = system: SNB-19 CNS
SNB-75 CNS = system: SNB-75 CNS
LOX IMVI melanoma = system: LOX IMVI melanoma
RXF 393 renal = system: RXF 393 renal

| SMILES | TGI (PC-3 prostate) [µM] | TGI (NCI-H23 lung) [µM] | TGI (OVCAR-3 ovarian) [µM] | TGI (IGROV1 ovarian) [µM] | TGI (HCC-2998 colon) [µM] | TGI (SK-MEL-2 melanoma) [µM] | TGI (SNB-19 CNS) [µM] | TGI (SNB-75 CNS) [µM] | TGI (LOX IMVI melanoma) [µM] | TGI (RXF 393 renal) [µM] |
| --- | --- | --- | --- | --- | --- | --- | --- | --- | --- | --- |
| O=C1CSc2nnc(CCCCCCCCc3nnc4n3NC(=O)CS4)n2N1 | > 100 | > 100 | > 100 | > 100 | > 100 | > 100 | > 100 | > 100 |  |  |
| COC(=O)/C=C/c1ccc2c(c1)CC1(Cc3ccccc3C1)C2 | > 100 | > 100 | > 100 | > 100 | > 100 | > 100 |  |  | > 100 | > 100 |
| COC1=CC(=O)C2=C(C1=O)[C@H]1CC[C@]3(C)[C@@H](OC(C)=O)CC[C@H]3[C@@H]1CC2 | > 100 | > 100 | > 100 | > 100 |  | > 100 | > 100 | > 100 | 36.7 | > 100 |
| CC(C)CCCC(C)[C@H]1CC[C@H]2N=C(Nc3ccccc3)CCC[C@]12C (some centres undefined) | > 100 | 4.25 | 6.8 | 3.34 |  | 3.2 | 17.1 | 3.99 | 4.07 | 2.98 |
| Cc1c2cccc-2ccc2c1[nH]c1ccccc12 | 3.45 | 8.99 | 6.03 | 5.77 |  | 3.39 | 10.3 | 4.33 | 6.41 | 9.42 |
| CCOC1=C2NC(Cc3ccc(F)cc3)=NC2C(=O)c2ccccc21 (centres undefined) |  | 53.4 | > 100 | > 100 | > 100 | 44.2 |  | 55.1 | 71.4 | 73.5 |
| NS(=O)(=O)c1cc(S(N)(=O)=O)c(NC(=O)N(c2ccccc2)c2ccccc2)c(Cl)c1Cl | > 100 | 58.2 | 49.4 | 25.6 | 35.3 | 82.7 | > 100 |  | 25 |  |
| O=[N+]([O-])c1ccc(NS(=O)(=O)C(F)(F)F)cc1 | > 100 | > 100 | > 100 | > 100 |  | > 100 | > 100 | > 100 | > 100 | > 100 |
| CC(=O)CC1(C)OC(N)=C(C#N)C1(C#N)C#N (centres undefined) | > 100 | > 100 |  | > 100 | > 100 | > 100 | > 100 | > 100 | > 100 | > 100 |
| COc1ccc(C=Nc2ccc(-c3nc4ccccc4[nH]3)cc2)cc1OC | > 100 | > 100 | > 100 | > 100 |  | > 100 | > 100 | 52.3 | > 100 | > 100 |
| COC(=O)n1c(C[P+](c2ccccc2)(c2ccccc2)c2ccccc2)cc2ccccc21 |  | 7.77 | 11.2 | 12 | 10.3 | 4.97 | 10.8 |  | 11.5 | 14.4 |
